Laboratory results reported in patent US9056835B2, “LPA2 receptor-specific benzoic acid derivatives” (University of Tennessee Research Foundation, priority 2012, dated 2015).

How the values were obtained:
[1] = molecular target: T1, LPA2, TRIP6 and NHERF2 (Homo sapiens, UniProt Q9HBW0); experiment: Ligand-induced macromolecular complex formation with LPA2; assay type: cell-based; settings: HEK293T, FLAG-LPA2 and EGFP-NHERF2, 10 μM, 10 min
T1 construct: expressed in transfected cells; host or cells: HEK293T, transient co-transfection
T1 sequence (Q9HBW0 whole entry): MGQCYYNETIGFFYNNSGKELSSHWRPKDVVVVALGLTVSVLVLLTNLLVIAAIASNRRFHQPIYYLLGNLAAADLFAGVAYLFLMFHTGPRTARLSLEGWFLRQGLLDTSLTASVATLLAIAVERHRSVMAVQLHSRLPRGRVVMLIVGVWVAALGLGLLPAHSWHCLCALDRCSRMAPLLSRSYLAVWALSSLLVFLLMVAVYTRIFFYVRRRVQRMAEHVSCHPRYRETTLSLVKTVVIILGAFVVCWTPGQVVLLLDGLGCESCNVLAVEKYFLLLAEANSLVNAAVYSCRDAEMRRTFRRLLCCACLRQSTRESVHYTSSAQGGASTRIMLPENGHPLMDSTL
T1 sequence (Q15599 whole entry partner): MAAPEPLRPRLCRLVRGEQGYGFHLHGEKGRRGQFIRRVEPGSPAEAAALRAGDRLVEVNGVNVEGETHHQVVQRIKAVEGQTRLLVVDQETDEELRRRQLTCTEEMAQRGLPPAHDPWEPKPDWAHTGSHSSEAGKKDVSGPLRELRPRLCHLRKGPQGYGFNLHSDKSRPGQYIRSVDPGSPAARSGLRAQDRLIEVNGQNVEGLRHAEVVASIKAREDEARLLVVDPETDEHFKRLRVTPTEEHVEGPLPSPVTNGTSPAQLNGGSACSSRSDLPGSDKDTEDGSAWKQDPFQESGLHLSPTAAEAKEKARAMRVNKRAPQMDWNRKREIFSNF
T1 sequence (Q15654 whole entry partner): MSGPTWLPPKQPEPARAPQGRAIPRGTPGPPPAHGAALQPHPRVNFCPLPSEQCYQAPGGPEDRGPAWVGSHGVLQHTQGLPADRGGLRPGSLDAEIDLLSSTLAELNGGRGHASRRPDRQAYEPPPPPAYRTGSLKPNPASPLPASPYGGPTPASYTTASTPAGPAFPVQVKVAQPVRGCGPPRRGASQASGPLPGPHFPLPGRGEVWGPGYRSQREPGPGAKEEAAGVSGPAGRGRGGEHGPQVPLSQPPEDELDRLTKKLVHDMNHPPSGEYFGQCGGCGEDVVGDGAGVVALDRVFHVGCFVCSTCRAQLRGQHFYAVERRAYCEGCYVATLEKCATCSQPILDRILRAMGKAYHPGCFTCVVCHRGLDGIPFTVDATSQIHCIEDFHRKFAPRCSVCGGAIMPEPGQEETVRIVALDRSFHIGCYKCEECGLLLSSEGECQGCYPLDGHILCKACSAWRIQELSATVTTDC
Source text: LPA2 forms a ternary complex with TRIP6 and NHERF2. This complex is assembled via multiple protein-protein interactions that include: binding of NHERF2 to the C-terminal PSD95/Dlg/ZO-1 domain (PDZ)-binding motif of LPA2, the binding of TRIP6 to the Zinc-finger-like CxxC motif of LPA2, and binding of NHERF2 to the PDZ-binding motif of TRIP6. To examine ligand-induced macromolecular complex formation, HEK293T cells were transfected with FLAG-LPA2 and enhanced green fluorescent protein (EGFP)-NHERF2, and the cells were exposed to 10 μM GRI977143 for 10 min as described in detail in our previous publication (E et al., The LPA2 receptor-mediated supramolecular complex formation regulates its antiapoptotic effect. J Biol Chem (2009) 284: 14558-14571). The complex was pulled down using anti-FLAG M2 monoclonal antibody-conjugated agarose beads (Sigma-Aldrich) and processed for western blotting using anti-EGFP (gift from Dr. A. P. Naren; UTHSC, TN), anti-FLAG (Sigma-Aldrich), and anti-TRIP6 (Bethyl Laboratories; Montgomery, Tex.) antibodies.

[2] = system: PARP-1; experiment: Immunoblot, PARP-1 cleavage; assay type: cell-based, mouse; settings: 10 μM
Procedure: (§1) Experiments were performed on vector- and LPA2-transduced MEF cells. To measure caspase 3, 7, 8, or 9 activity and DNA fragmentation, cells were plated in 48-well plates (2×10^4 cells/well). To detect PARP-1 cleavage and Bax translocation, 1.5×10^6 cells were plated in 10-cm dishes and cultured overnight in full growth medium. The next morning, the growth medium was replaced by serum-starvation medium and cells were pretreated for 1 h with LPA (1-10 μM), OTP (1-10 μM), GRI977143 (1-10 μM), or vehicle. Caspase activity, DNA fragmentation, PARP-1 cleavage, and Bax translocation were measured 5 h after incubation with 1.7 μM Adriamycin or 24 h after serum withdrawal.
To detect ligand-induced ERK1/2 activation, vector- and LPA2-transfected MEF cells were serum starved 3 h before exposure to 1 μM LPA, 1 μM OTP, 10 μM GRI977143, or vehicle for 10 min. For ERK1/2 activation and PARP-1 cleavage measurements, cells were harvested in 1× Laemmli sample buffer and separated using 12% Laemmli SDS-polyacrylamide gels. To assess Bax translocation, cell lysates were separated into cytosolic, mitochondrial, and nuclear fractions using the Cell Fractionation Kit-Standard (MitoSciences; Eugene, Oreg.). […] Samples were boiled for 5 min and loaded onto 12% SDS-polyacrylamide gels. Western blotting was carried out as previously described (Valentine et al., 2010). […]

[3] = system: Bax; experiment: Immunoblot, Bax translocation; assay type: cell-based, mouse; settings: 10 μM
Procedure: as §1
(§2) To detect ligand-induced ERK1/2 activation, vector- and LPA2-transfected MEF cells were serum starved 3 h before exposure to 1 μM LPA, 1 μM OTP, 10 μM GRI977143, or vehicle for 10 min. For ERK1/2 activation and PARP-1 cleavage measurements, cells were harvested in 1× Laemmli sample buffer and separated using 12% Laemmli SDS-polyacrylamide gels. To assess Bax translocation, cell lysates were separated into cytosolic, mitochondrial, and nuclear fractions using the Cell Fractionation Kit-Standard (MitoSciences; Eugene, Oreg.). […] Samples were boiled for 5 min and loaded onto 12% SDS-polyacrylamide gels. Western blotting was carried out as previously described (Valentine et al., 2010). Primary antibodies against pERK1/2, PARP-1, Bax (Cell Signaling Technology; Beverly, Mass.), actin (Sigma-Aldrich), and anti-rabbit-horseradish peroxidase secondary antibodies (Promega) were used according to the instructions of the manufacturer.

[4] = system: ERK1/2; experiment: Immunoblot, ERK1/2 activation; assay type: cell-based, mouse; settings: 10 μM, 10 min
Procedure: as §2

`O=C(O)c1ccccc1SCCCN1C(=O)c2cccc3cccc(c23)C1=O` [GRI977143] was tested. Which “assembly of macromolecular complex LPA2-TRIP6-NHERF2” value [1] did it give?
The value was “elicited the assembly of the signaling complex”.

And the PARP-1 cleavage ([2]; LPA2-transduced MEF, Adriamycin or serum withdrawal)?
Its PARP-1 cleavage is “reduced PARP-1 cleavage”.

What about the PARP-1 cleavage ([2]; vector-transduced cells) of the same compound?
The PARP-1 cleavage was “not observed”.

And the “Bax translocation to the mitochondria” value ([3]; LPA2-transduced MEF, Adriamycin)?
Its value is “maintained a high level of Bax in the cytoplasm”.

And the “cytosolic Bax level” value ([3]; serum withdrawal model)?
The value was “did not detect any change in cytosolic Bax level”.

And the Bax translocation ([3]; vector-transduced MEF, Adriamycin)?
The Bax translocation was “failed to reduce Bax translocation”.

And the “increase in ERK1/2 activation” value ([4]; LPA2-transduced MEF)?
The value was 9.6 fold.

And the ERK1/2 basal activity ([4]; vector-transduced MEF)?
The ERK1/2 basal activity was “did not alter the basal activity”.
